Results: patent publication US20230139883A1, “Peptides for Inducing Differentiation” (Shimadzu Corporation, priority 2020, published 2023)

Columns and labels:
FGFR3 = test: Phage display selection against FGFR3 with Miseq analysis of the bound phages; format: binding; conditions: for 1 nM Num. of reads: phage library after panning Round 4, bound to 1 nM FGFR3; for 10 nM Num. of reads: phage library after panning Round 4, bound to 10 nM FGFR3; for 100 nM Num. of reads: phage library after panning Round 4, bound to 100 nM FGFR3; for 1 nM Ranking / 10 nM Ranking / 100 nM Ranking: rank by number of reads; for 1 nM Ranking: 1 nM FGFR3; for 10 nM Ranking: 10 nM FGFR3; for 100 nM Ranking: 100 nM FGFR3
Experimental: The collected phage library was mixed with 100 nM of FGFR3 solution and allowed to react overnight at 4° C. (Table 9: Panning Round 1). After the reaction, the binding phages were captured by magnetic beads modified with protein A, and washed three times with PBS-T, followed by eluting the bound phages with Gly-HCl (pH 2.0). After neutralizing with 2M Tris, the pages were infected to E. coli (TG1 strain). After 4 hours of incubation, helper phages were added, and the E. coli (TG1 strain) were allowed to produce phages overnight. Next, phage solution was prepared from the culture supernatant. The prepared phage solution was mixed with FGFR3 solution and allowed to react overnight at 4° C. (Table 9: Panning Round 2). After the reaction, the bound phages were eluted. Phage solution prepared in the same way was mixed with FGFR3 solution and allowed to react at 4° C. for 1 hour (Table 9: Panning Round 3). After the reaction, the bound phages were eluted. This operation was further repeated, and after Panning Round 4, the bound phages were eluted. Note that as the rounds proceeded, the number of washes with PBS-T was increased. (Table 9). The titer of the Output phage in each round was also determined. The titer of phage was determined from the number of colonies obtained by incubating the E. coli TG1 strain contacted with the phage at 37° C. overnight. The phage library eluted after panning of Example 7 (Table 9: Input phage (Round 4)) was subjected to Human IgG Fc-immobilized plate, and negative selection was performed by collecting unbound phages. The phage library was then acted to FGFR3 prepared to concentrations of 100 nM, 10 nM, and 1 nM. Bound phages were then collected. The genomic DNA of the collected phages was extracted, samples were prepared according to Illumina's protocol for Miseq, and a comprehensive analysis of the phage genomic DNA was performed. Among the sequences obtained, 20 sequences high incidence rates were selected (Table 11). The yeast cells acquired in the screening of Example 8 were seeded onto SDCAA agar plates and cultured. Fourteen single colonies formed on the agar plates were randomly selected, and for each clone, the peptide DNA sequence incorporated into the yeast expression plasmid was analyzed using the Sanger method (Table 12).

FGFR2 = test: Yeast display screening (MACS/FACS) against FGFR2 with Sanger sequencing of single colonies; format: binding; conditions: frequency of the clone among randomly selected single colonies after FGFR2 screening
Experimental: Cells were then charged to an LS column attached to a magnetic stand. In order to remove yeast cells not bound to FGFR2, 7 mL of PBSM was flowed through the LS column twice. The LS column was then removed from the magnetic stand and FGFR2-binding yeast clones were collected by flowing SDCAA medium and cultured. The above operations were deemed as one round, and a total of three rounds were performed (Table 10). Next, yeast clones with high binding activity were screened from the yeast collected by MACS, using FACS (Fluorescence-activated cell sorting). FGFR2-Fc and mouse anti-FLAG antibodies were bound to the yeast library, followed by binding of anti-mouse IgG-Alexa488 and anti-human Fc antibody-Alexa647. […] The binding of the peptide to FGFR2 can also be detected by the fluorescence intensity of Alexa647. With that, yeast clones with high fluorescence intensities of Alexa488 and Alexa647 were collected by FACS cell sorter (BD FACS AriaIII).
The phage library eluted after panning of Example 7 (Table 9: Input phage (Round 4)) was subjected to Human IgG Fc-immobilized plate, and negative selection was performed by collecting unbound phages. The phage library was then acted to FGFR3 prepared to concentrations of 100 nM, 10 nM, and 1 nM. Bound phages were then collected. The genomic DNA of the collected phages was extracted, samples were prepared according to Illumina's protocol for Miseq, and a comprehensive analysis of the phage genomic DNA was performed. Among the sequences obtained, 20 sequences high incidence rates were selected (Table 11). The yeast cells acquired in the screening of Example 8 were seeded onto SDCAA agar plates and cultured. Fourteen single colonies formed on the agar plates were randomly selected, and for each clone, the peptide DNA sequence incorporated into the yeast expression plasmid was analyzed using the Sanger method (Table 12).

iPS-hFB [1] = test: Differentiation induction of iPS cells into cardiomyocytes: RT-qPCR of cardiomyocyte markers cTNT and Actinin; conditions: Day 23
iPS-hFB [2] = test: Differentiation induction of iPS cells into cardiomyocytes: observation of beating cell clusters; conditions: Example 3: 0.05 μM peptide + Activin A on Day 1, no bFGF
[3] = Example 3, protocol 5, 0.05 μM, compared to protocols 1, 3, 4 or 6

Molecule | 1 nM Num. of reads (FGFR3) | 10 nM Num. of reads (FGFR3) | 100 nM Num. of reads (FGFR3) | 1 nM Ranking (FGFR3) | 10 nM Ranking (FGFR3) | 100 nM Ranking (FGFR3) | Frequency (FGFR2) | also measured
CAAELAALEAELAALEGEVNMTRARAGKLLVLKVKLHGLKQAC [F3-100n504] | 1062 | 741 | 1006 | 18 | 21 | 21 | – | –
CAAELAALEAELAALEGGAFLTVGRAGKLMMLKQKLVRLKCAC [F3-100n117] | 1355 | 948 | 1188 | 9 | 9 | 12 | – | –
CAAELAALEAELAALEGGAPVTIMGVGKLMVLKEKLRNLKDAC [F3-100n16] | 1095 | 647 | 775 | 16 | 26 | 33 | – | –
CAAELAALEAELAALEGGGGGGG----FLRNLHIKLYLLQFAC [FGFR_Y07] | – | – | – | – | – | – | 1 | –
CAAELAALEAELAALEGGGGGGG----KLMDLHYQLYNLFIAC [FGFR_Y01] | – | – | – | – | – | – | 1 | –
CAAELAALEAELAALEGGRDRTLELSGKLLVLKSKLHWLKHAC [F3-100n251] | 3203 | 2387 | 3153 | 2 | 1 | 2 | – | –
CAAELAALEAELAALEGGRTPVVTTMGKLMGLKLKLQQLKRAC [F3-100n322] | 1234 | 813 | 1061 | 12 | 16 | 18 | – | –
CAAELAALEAELAALEGKDFRTIELVGKLVLLKYKLNNLKEAC [F3-100n548] | 1248 | 873 | 1088 | 11 | 13 | 17 | – | –
CAAELAALEAELAALEGKEHPTLRTSGKLLHLKLKLHELKRAC [F3-100n131] | 2801 | 2079 | 2648 | 3 | 4 | 3 | – | –
CAAELAALEAELAALEGLDYHTVLSTGKLMVLKRKLNILKLAC [F3-100n250] | 966 | 856 | 1096 | 20 | 14 | 16 | – | –
CAAELAALEAELAALEGLHTLTLMQTGKLLVLKMKLRELKWAC [F3-100n192] | 1100 | 707 | 857 | 15 | 23 | 28 | – | –
CAAELAALEAELAALEGPPRPHLPPLGKLFLLKFKLYLLKGAC [FGFR_Y09] | – | – | – | – | – | – | 1 | –
CAAELAALEAELAALEGPSRVGSRRRGKLNLLKYKLHGLKLAC [FGFR_Y13] | – | – | – | – | – | – | 1 | –
CAAELAALEAELAALEGQKHFTLGGLGKLIVLKKQLRILKCAC [F3-100n174] | 1668 | 1223 | 1811 | 8 | 7 | 6 | – | –
CAAELAALEAELAALEGRPVRTVLTNGKLMVLKSKLQELKHAC [F3-100n182] | 1723 | 1143 | 1423 | 7 | 8 | 8 | – | –
CAAELAALEAELAALEGRTFTIGEVKGKLQGLIMKLHHLKDAC [F3-100n116] | 1895 | 2291 | 3236 | 6 | 2 | 1 | – | –

Molecule | 1 nM Num. of reads (FGFR3) | 10 nM Num. of reads (FGFR3) | 100 nM Num. of reads (FGFR3) | 1 nM Ranking (FGFR3) | 10 nM Ranking (FGFR3) | 100 nM Ranking (FGFR3) | Frequency (FGFR2) | also measured
CAAELAALEAELAALEGSTARTLMQVGKLEMLKYKLLELKCAC [F3-100n3] | 1084 | 613 | 850 | 17 | 29 | 29 | – | –
CAAELAALEAELAALEGVKELTLGTVGKLMSLKYKLWSLKQAC [F3-100n410] | 2547 | 1717 | 2279 | 4 | 5 | 5 | – | –
CAAELAALEAELAALEGVRPETMSQVGKLLVLKHRLGQLKRAC [F3-100n9] | 3326 | 2152 | 2566 | 1 | 3 | 4 | – | –
CAAELAALEAELAALEVGRVKTLGRYGKLMVLKHQLRNLKCAC [F3-100n161] | 1045 | 903 | 1261 | 19 | 10 | 9 | – | –
CAHHLASLEYDLAILEGGDGGGG----HLARLKRQLAELKNAC [FGFR_Y16] | – | – | – | – | – | – | 1 | –
CAKELLALKRELKALQGGGGGGG----KLRALQLKLYALLLAC [FGFR_Y11] | – | – | – | – | – | – | 2 | –
CALELLALRGELEALRGGGGGGG----KLGALHLKLFALQWAC [FGFR_Y08] | – | – | – | – | – | – | 1 | –
CAQELRALLRELQALGGGGGGGG----KLGALVFKLYALMLAC [FGFR_Y15] | – | – | – | – | – | – | 1 | –
CAQELVALHMELRALGGGGGGGG----KLQALYLKLFALDHAC [FGFR_Y04] | – | – | – | – | – | – | 1 | –
CARELQALGKELKALKGGGGGGG----KLRALQLKLYALQVAC [FGFR_Y10] | – | – | – | – | – | – | 1 | –
CARELQALLKELQALGGGGGGGG----KLLALFVKLYALRLAC [FGFR_Y02] | – | – | – | – | – | – | 1 | –
CARELRALRRELRALQGGGGGGG----KLHALHRKLFALMVAC [FGFR_Y06] | – | – | – | – | – | – | 1 | –
CAVELYALHRELYALYGGGGGGS----KLYALYLKLLALQLAC [FGFR_Y05] | – | – | – | – | – | – | 1 | –
CPRELEALRRELGALMGGGGGGG----KLNALMLKLYALHNAC [FGFR_Y14] | – | – | – | – | – | – | 1 | –
100nX-Dimer: a dimerized peptide of 100nX (SEQ ID NO: 9) (dimerized) chain 1: CAAELAALEAELAALEGVPGDNNGTRGKLYHLKNKLHRLKNAC chain 2: CAAELAALEAELAALEGVPGDNNGTRGKLYHLKNKLHRLKNAC | – | – | – | – | – | – | – | ACTN2 expression level (iPS-hFB [1]; [3]): significantly increased; cTNT expression level (iPS-hFB [1]; [3]): significantly increased; gene expression levels (cTNT, ACTN2) (iPS-hFB [1]; Example 4: peptide in combination with bFGF, compared to conventional protocol 1): significantly increased; day on which beating cell clusters were observed (iPS-hFB [2]): 11 days
